Here are results for two compounds from patent publication US20240294478A1, “ANTI-CANCER COMPOUNDS AND METHODS OF USE” (YALE UNIVERSITY, priority 2021, published 2024).

Like-named read-outs stand apart in the source and are kept apart here.

Test [1] deals with DLD1 BRCA2+/− and BRCA2−/− cells. As to the kind of experiment: Short-term viability assay, DLD1 BRCA2 isogenic model +/- O6BG. The test is classed as cell-based, human. As for the experimental part:
FIGS. 8A-8K. (FIG. 8A) Change in percent cells with 1 micronuclei from baseline (DMSO control) after treatment as in FIGS. 5A and 5C. […] (FIG. 8B) Short-term viability assay curves for KL-50 in PD20 cells, deficient in FANCD2 (FANCD2−/−) or complemented with FANCD2 (+FANCD2). (FIG. 8C) Short-term viability assay curves for KL-50 in PEO4 (BRCA2+) and PEO1 (BRCA2−/−) cells pre-treated with 0.01% DMSO control or 10 μM O^6BG (+O^6BG) for 1 h prior to KL-50 addition. (FIG. 8D) Short-term viability assay curves for KL-50 in DLD1 BRCA2+/− and BRCA2−/−cells pre-treated with 0.01% DMSO control or 10 μM O^6BG (+O^6BG) for 1 h prior to KL-50 addition. For FIGS. 8B-8D, points, mean; error bars, SD; n=3 technical replicates. […] Change in percent cells with 1 micronuclei from baseline (DMSO control) after treatment with olaparib (10 μM) for 48 h in LN229 MGMT+/−, MMR+/−cells. […] Western blot analysis of FANCD2 ubiquitination in LN229 MGMT+/−, MMR+/−cells and PD20 FANCD2-deficient cells, complemented with empty vector (FANCD2+EV), wildtype FANCD2 (PD20+FD2) or ubiquitination-mutant FANCD2 (PD20+KR). The % FANCD2 ubiquitination (% FANCD2 Ub) is quantified as the background-corrected integrated band intensity of the upper band divided by the sum of the background-corrected integrated band intensities of the upper and lower bands. The fold change in % FANCD2 ubiquitination is presented for each cell line relative to DMSO-treated cells. Vinculin serves as loading control. For 8J-8K, points, mean; error bars, SD; n=3 technical replicates.
Short-term Cell Viability Assay. Cells were seeded in 96-well plates at 1000 or 2000 cells/well and allowed to adhere at 23° C. for 60 min and then incubated overnight at 37° C. […] Cells were imaged on a Cytation 3 imaging reader (BioTek) and quantified using CellProfiler software. For in vitro short-term growth delay experiments, IC50 values were determined from the nonlinear regression equation, [inhibitor] vs normalized response with variable slope.

The test system of test [2] is LN229 MGMT+/MMR+ cells. As to the kind of experiment: Short-term cell viability assay, LN229 MGMT+/MMR+. It is filed as cell-based. The following applies: Homo sapiens, read-out: IC50 against LN229 cell lines, MGMT+ MMR+. As for the experimental part:
LN229 MGMT- and MGMT+ cell lines were a gift from B. Kaina (Johannes Gutenberg University Mainz, Mainz, Germany) and grown in Gibco® Duilbecco's Modified Eagle Medium with 10% fetal bovine serum (DMEM). For each compound tested, the relationship between MGMT status and MMR status and compound activity, in terms of IC50 values ([…]), was determined by the following method. On day 1, LN229 isogenic cells of varying MGMT and MMR status were seeded in 96 well format at a density of 2000 cells/well in 100 μL of DMEM media and allowed to adhere overnight. On day 2, a drug master plate was made with 100×the desired maximal concentration of test compound and serially diluted by 2 until 100×the minimal desired concentration, with one DMSO control. Then daughter plates were created with varied concentrations from 3-times the minimal concentration to 3-times the maximal desired concentration. Afterwards, 50 μL of daughter drug plate was added to 100 μL of the seeded cells for a final concentration of 1×in triplicate. Cells were allowed to grow for 6 days. On day 7, the cells were fixed, and stained with Hoechst nuclear dye and imaged to determine growth inhibition.
For each compound tested, the relationship between MGMT status and MMR status and compound activity, in terms of IC50 values (in μM), was determined. In addition, for each compound, the therapeutic index (TI) was calculated, according to the equation MGMT TI=IC50 (MGMT+/MMR+) divided by IC50 (MGMT−/MMR+). The T1 indicates the efficacy of a compound in treating the targeted MGMT-cancer cells as compared to potential for the same compound to damage, or have adverse effects against, normal cells which are MGMT+cells, The higher the value of the TI, the safer the compound is. […] MMR RI (resistance index)=IC50 (MGMT−/MMR−) divided by IC50 (MGMT−/MMR+). The higher the value of the RI, the less likely that resistance to the compound will develop.
Short-term Cell Viability Assay. Cells were seeded in 96-well plates at 1000 or 2000 cells/well and allowed to adhere at 23° C. for 60 min and then incubated overnight at 37° C. Cells were treated with indicated concentrations of compounds in triplicate for 4-6 days prior to fixation with 3.7% paraformaldehyde and nuclear staining with 1 μg/mL Hoechst 33342 dye. Cells were imaged on a Cytation 3 imaging reader (BioTek) and quantified using CellProfiler software. For in vitro short-term growth delay experiments, IC50 values were determined from the nonlinear regression equation, [inhibitor] vs normalized response with variable slope.

In test [3] the test system is MGMT+ LN229 cells. As to the kind of experiment: Clonogenic survival assay, LN229 MGMT+ cells. It is filed as cell-based, human. As for the experimental part: In vitro clonogenic survival assays (CSAs) were performed using four isogenic LN229 glioblastoma cell lines.
Clonogenic Cell Survival Assay. Cells of each line were pretreated with the test drug in culture for 48-72 hours at the specified dilutions. The cells were then immediately seeded in six-well plates in triplicate at three-fold dilutions, ranging from 9000 to 37 cells per well. Depending on colony size, these plates were kept in the incubator for 10 to 14 days. After incubation, colonies were washed in phosphate-buffered saline (PBS) and stained with crystal violet. Colonies were counted by hand. Counts were normalized to plating efficiency of the corresponding treatment condition.

A word on the IC50: it is the midpoint of a concentration-inhibition curve. Take `NC(=O)c1ncn2c(=O)n(CCF)nnc12` [KL-50]: the “therapeutic index (TI), ratio of IC50 values in MGMT+/BRCA2+ cells compared to MGMT−/BRCA2− cells” value in test [1] (DLD1 isogenic model) is recorded as about 600 fold. The “effect of BRCA2 loss on toxicity” value in test [1] (two MGMT-proficient cell models, following MGMT depletion via O6BG) is listed as “BRCA2 loss enhanced the toxicity”. Besides, the concentration for half-maximal inhibition (IC50) in test [2] (LN-229, Table III, shRNA None) is 285 ± 46 µM; in test [2] (LN-229, Table II), 587 ± 166 µM. In addition, the “clonogenic survival, toxicity to MGMT+ cells” value in test [3] (at doses up to at least 200 μM) is “minimal toxicity”.
With `Cn1nnc2c(C(N)=O)ncn2c1=O` [TMZ, 4-methyl-5-oxo-2,3,4,6,8-pentazabicyclo[4.3.0]nona-2,7,9-triene-9-carboxamide, reference compound], the half-inhibitory concentration (IC50) is over 100 µM in test [2] (LN-229, 144 h, Table 1, 6 days growth, Hoechst nuclear count); 697 ± 60 µM in test [2] (LN-229, Table III, shRNA None); 742 ± 468 µM in test [2] (LN-229, Table II). The “clonogenic survival, activity in MGMT+ cells” value in test [3] (irrespective of MMR status) is “negligible activity”.
